Measured values: EP0151110B1 (priority 1983, dated 1985)

Legend:
[1] = Skin temperature within intracutaneous wheals compared with skin outside the wheals during anesthesia; format: in vivo, humans; settings: for T1 °C Intracutaneous Wheal / °C Difference: HCl-salt; for T1 °C Intracutaneous Wheal: center of wheal, 10 minutes after intracutaneous injection, mean of 6 wheals; for °C Difference: T1 (wheal) minus T2 (controls outside wheal), 10 minutes after injection; for change of temperature over the wheal, in words: Table 4, Conc. 0.25 %
Description: The means value of 6 wheals for each substance forms the basis for the values. The control values, however, represent the mean value obtained from 4 different sites measured outside the wheals 90 degrees apart and 2 centimeters from the wheal's center.
In the temperature measurements, an Oriel temperature apparatust has been used. This is battery driven and is connected to a detector (diameter, 2,5 mm) and has an accuracy of ± 0.1°C. The temperature of the skin is measured by pressing the detector against the skin with a pressure of 100 grams.
against the skin until a constant temperature is obtained.
In Table 4, T, is the measurement obtained at the center of the wheal, and T2 is the average of four measurements taken 90 degrees apart outside of the wheal and within 2 centimeters of the wheal's center.

[2] = racemate; from Aberg et al., Acta pharmacol. et toxicol. 41 (1977), Table 1 at p. 435; cited from earlier work
[3] = racemate; from Aberg et al., Acta pharmacol. et toxicol. 41 (1977), Table 1 at p. 435; cited from earlier work; remark: listed apart in the source
in vivo = settings: mouse, iv, read-out: LD50** I.v. (intravenous) mg/kg/mouse
[4] = in vivo
Source text: • ^* Trypan blue test; Hoppe et al. (1950), 39, 147-151 "Use Of Trypan Blue And Rabbit Eye Tests For Irritation", J. Amer. Pharm. Ass. (Scient. Ed.), the values are approximate threshold values of tissue irritancy. • ^** LD50, i.e. 50% mortality of mice. • ^*** Studies On The Duration Of Local Anaesthesia: Structure/Activity Relationships In A Series Of Homologous Local Anaesthetics, by G. Aberg, et al., Acta pharmacol. et toxicol., 41 (1977) pp. 432-443, Table 1 at p. 435.

[5] = system: periphera nerve ending of the epidermis; assay: Infiltration anesthesia, intracutaneous wheals on forearms of man (pin-prick); format: in vivo; settings: compared among 12 optically active and inactive structures
Description: By use of intracutaneous wheals it is possible to measure the analgesic effect of an anesthetic on the periphera nerve ending of the epidermis.
This technique gives information about: • (1) the duration of anesthesia. • (2) Epidermal diffusion. • (3) Vascular effects. [formula]
' Infiltration anesthesia on forearms of man. The test solutions were injected intracutaneously on the dorsum of the forearms of 12 healthy volunteers, 20-25 years old. Three wheals were made on each arm in a rotating system in a double-blind fashion. The local anesthetic effect was tested using a pin-prick technique. the "duration of anesthesia" was defined as the time during which none of six pin-pricks into the wheel was felt. The method had been described by Dhuner et al. (1972). Dhuner, K. G., D. H. Lewis, A. Nyquist, D. Selander & E. Stig: Vascular effects of the isomers of mepivacaine, Acta Anaest. Scand. 1972, Supple. 48, 45-52. • * L=Laevo, R=Racemic, D=Dextro • ** C equals grams per 100 ml of solution. • ^*** New isolated stereoisomers [formula]

ulnar volar nerves = assay: Digital nerve blocks in man (finger blockade); format: in vivo; settings: compared among 12 optically active and inactive structures
Description: ^2 Digital nerve blocks in man. The test solutions were injected to block the ulnar volar nerves on the 2nd and 4th fingers of the same volunteers who has participated in the intracutaneous wheal tests described above. The tests were carried out in a double blind fashion in a rotating system, so that each solution was used with equal frequency on each of the blocked fingers. A total of four injections, 1.0 ml per injection, was done in each subject. One week later the procedure was repeated in the same subjects using the remaining test solutions. This method has been described by Dhuner et al. (1972) (for citation see Table 2 footnote 1). To measure the efficacy and duration of the blocks, the individual fingers were pricked rapidly 10 times with a needle algesimeter and the number of painful pricks noted. Each finger was tested every five minutes until complete recovery. The time of complete anesthesia has been called "duration of anesthesia". • ^* i.e. - the time from injection to complete analgesia • ^** i.e. - the number of successful anesthesias of total number of anesthesias performed (no anesthesia is possible if the ulnar volar nerves are not contacted by the anesthetic) • *** new isolated stereoisomers

CCCCN1CCCCC1C(=O)Nc1c(C)cccc1C (racemic) [No. 4, N-n-butylpipecolic acid-2,6-xylidide]
T1 °C Intracutaneous Wheal ([1]; Conc. 0.25 %): 31.5 °C | °C Difference ([1]; Conc. 0.25 %): −0.6 °C

CCCN1CCCCC1C(=O)Nc1c(C)cccc1C (racemic) [No. 3, N-n-propylpipecolic acid-2,6-xylidide]
solubility in water, in words [2]: slightly soluble in water | T1 °C Intracutaneous Wheal ([1]; Conc. 0.25 %): 33.1 °C | °C Difference ([1]; Conc. 0.25 %): −0.1 °C | change of temperature over the wheal, in words [1]: practically no change in temperature | Tissue toxicity (tissue irritancy), in words [3]: tissue irritating

Cc1cccc(C)c1NC(=O)C1CCCCN1C (racemic) [compound 1]
LD50 (in vivo): 40.3 mg/kg | Tissue* toxicity limits in % [4]: 3.5%

CCCN1CCCC[C@H]1C(=O)Nc1c(C)cccc1C [L-N-n-propylpipecolic acid-2,6-xylidide]
anesthetic effects, intracutaneous wheal (Table 2), in words [5]: gives the optimal increase of anesthetic effects | T1 °C Intracutaneous Wheal ([1]; Conc. 0.25 %): 30.0 °C | °C Difference ([1]; Conc. 0.25 %): −1.2 °C | change of temperature over the wheal, in words [1]: lowers the temperature over its wheal to approximately the same extent as the combination of lidocaine with adrenaline | anesthetic effects, finger-blockade (Table 3), in words (ulnar volar nerves): gives the optimal increase of anesthetic effects | Tissue* toxicity limits in % [4]: 0.75%

CCCN1CCCCC1C(=O)Nc1c(C)cccc1C (racemic) [compound 3]
Tissue* toxicity limits in % [4]: 1.5%

CCN1CCCC[C@@H]1C(=O)Nc1c(C)cccc1C [R-N-2-ethyl-pipecolic acid-2,6-xylidide]
T1 °C Intracutaneous Wheal ([1]; Conc. 1.0 %): 31.2 °C | °C Difference ([1]; Conc. 1.0 %): +0.5 °C

CCN1CCCCC1C(=O)Nc1c(C)cccc1C (racemic) [compound 2]
LD50 (in vivo): 21 mg/kg | Tissue* toxicity limits in % [4]: 3.0%
